tested on: IFNα-induced pSTAT5 (pY694) in CD3 positive cells of human whole blood; experiment: IFNα-Induced STAT Phosphorylation in Human Whole Blood; assay type: cell-based; details: Homo sapiens, 1 h compound incubation, 1000 U/mL recombinant human IFNα A/D for 15 min, pSTAT5 in CD3 positive population, read-out: Human WB IFNα-Induced Stat Phosph. (IC50)
How it was run: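 Read-out is median fluorescence intensity of pSTAT5 (pY694) in the CD3-positive gate, by flow cytometry after fix/lyse and permeabilization. Before that, whole human blood anticoagulated with EDTA or ACD-A received compound for an hour and 1000 U/mL IFNα A/D for 15 min.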

IC50 | Structure (SMILES)
790 nM | [2H]C([2H])([2H])NC(=O)c1nnc(NC(=O)C2CC2)cc1Nc1cccc(-c2nc(C(C)(C)O)no2)c1OC [Example 186]
160 nM | [2H]C([2H])([2H])NC(=O)c1nnc(NC(=O)C2CC2)cc1Nc1cccc(-c2cnn(CCNS(C)(=O)=O)n2)c1OC [Example 434]
130 nM | [2H]C([2H])([2H])NC(=O)c1nnc(NC(=O)C2CC2)cc1Nc1cccc(-c2ccn(CCN)n2)c1OC [Example 465]
100 nM | [2H]C([2H])([2H])NC(=O)c1nnc(NC(=O)C2CC2)cc1Nc1cc(F)cc(-c2cc(C(=O)N3CCN(CCO)CC3)n(C)n2)c1OC [Example 484]
180 nM | COc1c(Nc2cc(NC(=O)C3CC3)nnc2C(N)=O)cccc1-c1ncc(CN2CCOCC2)s1 [Example 401]
690 nM | [2H]C([2H])([2H])NC(=O)c1cnc(NC(=O)C2CC2)cc1Nc1cccc(-c2nc(C(C)N3CCN(S(C)(=O)=O)CC3)no2)c1OC (stereo not shown) [Example 223]
700 nM | [2H]C([2H])([2H])NC(=O)c1cnc(Nc2ccc(OC)nn2)cc1Nc1cccc(-c2csc(C(=O)NCCOC)n2)c1OC [Example 567]
30 nM | [2H]C([2H])([2H])NC(=O)c1nnc(NC(=O)C2CC2)cc1Nc1cccc(-c2ncc(C(=O)NCC3CCN(C)C3)s2)c1OC (stereo not shown) [Example 326]
440 nM | [2H]C([2H])([2H])NC(=O)c1cnc(NC(=O)C2CC2)cc1Nc1cccc(-c2cnn(CCNC(C)=O)n2)c1OC [Example 439]
30 nM | [2H]C([2H])([2H])NC(=O)c1nnc(NC(=O)C2CC2)cc1Nc1cccc(-c2nc(CN3CCN(S(C)(=O)=O)CC3)no2)c1OC [Example 128]
4340 nM | COc1c(Nc2cc(NC(=O)C3CC3)ncc2C#N)cccc1-c1nc(CN2CCN(S(C)(=O)=O)CC2)no1 [Example 578]
270 nM | [2H]C([2H])([2H])NC(=O)c1nnc(NC(=O)C2CC2)cc1Nc1cccc(-c2nc(CNC(C)=O)no2)c1OC [Example 145]
2530 nM | [2H]C([2H])([2H])NC(=O)c1nnc(NC(=O)C2CC2)cc1Nc1cccc(-c2ncc(CNC(=O)OC)s2)c1OC [Example 266]
60 nM | [2H]C([2H])([2H])NC(=O)c1nnc(NC(=O)C2CC2)cc1Nc1cccc(-c2ncc(C(=O)NCCN3CCCC(C)C3)s2)c1OC (stereo not shown) [Example 324]
4620 nM | [2H]C([2H])([2H])NC(=O)c1nnc(NC(=O)C2CC2)cc1Nc1cccc(-c2ncc(CC(=O)NCCC3CCCN3C)o2)c1OC (stereo not shown) [Example 412]
6510 nM | [2H]C([2H])([2H])NC(=O)c1nnc(NC(=O)C2CC2)cc1Nc1cccc(-c2nc(CN3CC4CNCC4C3)no2)c1OC (stereo not shown) [Example 232]
650 nM | [2H]C([2H])([2H])NC(=O)c1nnc(NC(=O)C2CC2)cc1Nc1cccc(-n2cc(CN3CCOCC3)nn2)c1OC [Example 2]
700 nM | [2H]C([2H])([2H])NC(=O)c1cnc(NC(=O)C2CC2)cc1Nc1cc(F)cc(-c2csc(C(=O)NCCOC)n2)c1OC [Example 574]
70 nM | [2H]C([2H])([2H])NC(=O)c1nnc(NC(=O)C2CC2)cc1Nc1cccc(-c2ncc(C(=O)N3CCC3)s2)c1OC [Example 313]

IC50 | Structure (SMILES)
80 nM | [2H]C([2H])([2H])NC(=O)c1nnc(NC(=O)C2CC2)cc1Nc1cccc(-c2noc(CNS(C)(=O)=O)n2)c1OC [Example 32]
50 nM | [2H]C([2H])([2H])NC(=O)c1cnc(NC(=O)C2CC2)cc1Nc1cccc(-c2noc(COC)n2)c1OC [Example 93]
190 nM | [2H]C([2H])([2H])NC(=O)c1nnc(NC(=O)C2CC2)cc1Nc1cccc(-c2cc(C(=O)N3CCC(OC)C3)n(C)n2)c1OC (stereo not shown) [Example 522]
330 nM | [2H]C([2H])([2H])NC(=O)c1nnc(NC(=O)C2CC2)cc1Nc1cccc(-c2ncc(C(=O)NCCCCC)s2)c1OC [Example 316]
2360 nM | [2H]C([2H])([2H])NC(=O)c1nnc(NC(=O)C2CC2)cc1Nc1cccc(-c2nc([C@@H](NC(=O)CC)[C@@H](C)O)no2)c1OC [Example 190]
180 nM | [2H]C([2H])([2H])NC(=O)c1cnc(NC(=O)C2CC2)cc1Nc1cccc(-c2nc(CCO)no2)c1OC [Example 228]
150 nM | [2H]C([2H])([2H])NC(=O)c1nnc(NC(=O)C2CC2)cc1Nc1cccc(-c2cc(C(=O)N3CCNCC3)n(C)n2)c1OC [Example 492]
630 nM | [2H]C([2H])([2H])NC(=O)c1nnc(NC(=O)C2CC2)cc1Nc1cccc(-c2nc([C@H](C)N)no2)c1OC [Example 181]
1080 nM | [2H]C([2H])([2H])NC(=O)c1nnc(NC(=O)C2CC2)cc1Nc1cccc(-c2nc(CNC(=O)CN3CCOCC3)no2)c1OC [Example 159]
18 nM | COc1c(Nc2cc(NC(=O)C3CC3)nnc2C(N)=O)cccc1-c1noc(C(=O)NCCC2CCCN2C)n1 (stereo not shown) [Example 37]
90 nM | [2H]C([2H])([2H])NC(=O)c1nnc(NC(=O)C2CC2)cc1Nc1cccc(-c2ncc(C(=O)NCCOC)s2)c1OC [Example 271]
200 nM | [2H]C([2H])([2H])NC(=O)c1nnc(NC(=O)C2CC2)cc1Nc1cccc(-c2nc(CN3CCN(C)CC3)no2)c1OC [Example 180]
740 nM | [2H]C([2H])([2H])NC(=O)c1nnc(NC(=O)C2CC2)cc1Nc1cccc(-c2nc(CN3CCN(C(=O)c4cccnc4)CC3)no2)c1OC [Example 131]
40 nM | [2H]C([2H])([2H])NC(=O)c1nnc(NC(=O)C2CC2)cc1Nc1cccc(-c2ncc(C(=O)NCC(C)(C)CN(C)C)s2)c1OC [Example 339]
290 nM | [2H]C([2H])([2H])NC(=O)c1nnc(NC(=O)C2CC2)cc1Nc1cc(F)cc(-c2cc(C(C)(C)O)n(C)n2)c1OC [Example 489]
60 nM | [2H]C([2H])([2H])NC(=O)c1cnc(NC(=O)C2CC2)cc1Nc1cccc(-c2noc(CCOC)n2)c1OC [Example 90]
1760 nM | [2H]C([2H])([2H])NC(=O)c1nnc(Nc2cc(C(C)(C)O)ccn2)cc1Nc1cccc(-c2csc(C(=O)NCCOC)n2)c1OC [Example 571]
180 nM | [2H]C([2H])([2H])NC(=O)c1cnc(NC(=O)C2CC2)cc1Nc1cccc(-c2nc(CO)no2)c1OC [Example 217]
560 nM | [2H]C([2H])([2H])NC(=O)c1nnc(NC(=O)C2CC2)cc1Nc1cccc(-c2cc(C(=O)N3CCS(=O)(=O)CC3)n(C)n2)c1OC [Example 455, 6-(cyclopropanecarboxamido)-4-((3-(5-(1,1-dioxidothiomorpholine-4-carbonyl)-1-methyl-1H-pyrazol-3-yl)-2-methoxyphenyl)amino)-N-(methyl-d3)pyridazine-3-carboxamide]

IC50 | Structure (SMILES)
420 nM | [2H]C([2H])([2H])NC(=O)c1nnc(NC(=O)C2CC2)cc1Nc1cccc(-c2ncc(COCC)s2)c1OC [Example 394]
230 nM | [2H]C([2H])([2H])NC(=O)c1nnc(NC(=O)C2CC2)cc1Nc1cccc(-c2ncc(CO)s2)c1OC [Example 257]
50 nM | [2H]C([2H])([2H])NC(=O)c1nnc(NC(=O)C2CC2)cc1Nc1cccc(-c2nc(C)c(C(=O)N3CCN(C(C)C)CC3)s2)c1OC [Example 369]
60 nM | [2H]C([2H])([2H])NC(=O)c1nnc(NC(=O)C2CC2)cc1Nc1cccc(-c2noc(CC(=O)N3CCOCC3)n2)c1OC [Example 23]
460 nM | [2H]C([2H])([2H])NC(=O)c1nnc(NC(=O)C2CC2)cc1Nc1cccc(-c2nc([C@H](NC(C)=O)[C@H](C)O)no2)c1OC [Example 203]
1130 nM | [2H]C([2H])([2H])NC(=O)c1nnc(NC(=O)C2CC2)cc1Nc1cccc(-c2nc(CN3CCN(C(=O)NCC)CC3)no2)c1OC [Example 136]
2130 nM | COc1c(Nc2cc(NC(=O)C3CC3)ncc2C(N)=O)cccc1-c1cnn(CCNC(=O)OC(C)(C)C)n1 [Example 444]
30 nM | [2H]C([2H])([2H])NC(=O)c1nnc(NC(=O)C2CC2)cc1Nc1cccc(-c2noc(CO)n2)c1OC [Example 69]
670 nM | [2H]C([2H])([2H])NC(=O)c1nnc(Nc2cc(C(C)(C)O)ccn2)cc1Nc1cccc(-c2cn(CCN3CCOCC3)nn2)c1OC [Example 425]
30 nM | [2H]C([2H])([2H])NC(=O)c1nnc(NC(=O)C2CC2)cc1Nc1cccc(-c2noc(CN3CCCS3(=O)=O)n2)c1OC [Example 76]
980 nM | [2H]C([2H])([2H])NC(=O)c1nnc(NC(=O)C2CC2)cc1Nc1cccc(-n2cc(CO)nn2)c1OC [Example 3]
50 nM | [2H]C([2H])([2H])NC(=O)c1nnc(NC(=O)C2CC2)cc1Nc1cccc(-c2nc(CN3CC4CN(S(C)(=O)=O)CC4C3)no2)c1OC (stereo not shown) [Example 235]
1380 nM | [2H]C([2H])([2H])NC(=O)c1nnc(NC(=O)C2CC2)cc1Nc1cccc(-c2noc(CNC(=O)OC)n2)c1OC [Example 30]
> 10000 nM | [2H]C([2H])([2H])NC(=O)c1nnc(NC(=O)C2CC2)cc1Nc1cccc(-c2ncc(C(=O)Nc3ccc(OC)cc3)s2)c1OC [Example 296]
180 nM | [2H]C([2H])([2H])NC(=O)c1nnc(Nc2cnn(C)n2)cc1Nc1cccc(-c2ncc(C(C)O)s2)c1OC (stereo not shown) [Example 385]
40 nM | CCS(=O)(=O)N1CCN(C(=O)c2cnc(-c3cccc(Nc4cc(NC(=O)C5CC5)nnc4C(N)=O)c3OC)s2)CC1 [Example 402]
30 nM | [2H]C([2H])([2H])NC(=O)c1nnc(NC(=O)C2CC2)cc1Nc1cccc(-c2ncc(C(=O)NCCN3CCOCC3)s2)c1OC [Example 321]
350 nM | [2H]C([2H])([2H])NC(=O)c1nnc(NC(=O)C2CC2)cc1Nc1cccc(-c2nc(C)c(C(=O)NCC3CCN(C)C3)s2)c1OC (stereo not shown) [Example 368]
40 nM | [2H]C([2H])([2H])NC(=O)c1nnc(NC(=O)C2CC2)cc1Nc1cccc(-c2ncc(C(=O)N3CCC(N4CCCC4)CC3)s2)c1OC [Example 350]

Structure (SMILES) | IC50
[2H]C([2H])([2H])NC(=O)c1nnc(NC(=O)C2CC2)cc1Nc1cccc(-c2ncc(C(=O)N[C@H]3CN4CCC3CC4)s2)c1OC [Example 327] | 150 nM
